Source: patent publication US20080261234A1, “Peptides and their use in assays for cardiovascular disease” (priority 2000, published 2008)
Where no end group is shown, it is not given here.

Tests used:
[1] = test system: autoantibodies against oxLDL in serum samples; experiment: Peptide EIA: autoantibodies against peptides and peptide-MDA complexes; type: binding, human; parameters: key to reaction of autoantibodies (mean ±SD): absorbance at 450 nm, blank subtracted; conditions: for reaction of autoantibodies (mean ±SD): plate coated with natp63, MDA and MDAp63; for amount of autoantibodies, mean absorbance after subtracting the blank: Patients (n = 20), six forms of p63 peptide antigen; for Reactivity of autoantibodies, absorbance (PEPTIDE EIA): absorbance at 450 nm, serum 1:20; for MDAp63:natp63 ratio: after subtracting the blank
Procedure: Native and MDA-modified peptides were tested always on the same plate. One half of the plate was coated with the native peptide (20 μg/ml) and the other half was coated with the MDA-modified peptide [(20 μg/ml) 100 μl/well in 100 mmol/l bicarbonate buffer (pH 9.5)]. Coated plates were incubated overnight at room temperature (RT) and then washed with an automatic washer (Wellwash 4 MK II, Labsystems Oy) three times with phosphate buffered saline (PBS) containing 0.05% Tween 20. Plates were blocked with PBS containing 1% human serum albumin (HSA) (150 μl/well) for 1 h at RT and washed as above. Serum samples were diluted 1:20 in PBS containing 0.2% HSA and 0.05% Tween 20 and pipetted 100 μl/well. Plates were incubated for 2 h at RT and washed as above. HRP-conjugated anti-human IgG (diluted 1:20 000 in the sample buffer) was added (100 μl) to each well and incubated for 1 h at RT. After washing, colour was developed by adding the peroxidase substrate (tetramethylbenzidine (TMB) as a chromagen, 100 μl/well) and incubating the plates for 30 min at room temperature in the dark. The reaction was stopped with 0.5 mol/l H2SO4 (100 μl/well) and absorbances were measured at 450 nm (Multiskan microplate reader, Labsystems Oy). The results are shown in Table 2 and are expressed as the absorbance measurement obtained for the native and the modified peptides or as the ratio between antibody binding to the native and the modified peptides after subtracting the blank control.
To find out whether autoantibodies react with the peptide, with MDA or both when peptide-MDA complexes are used as antigen, a microtiter plate was coated with natp63, MDA and MDAp63 antigen and the immunoassays performed. MDA antigen was prepared as MDAp63 antigen but without peptide and MDA was diluted for coating in the same way as MDAp63.

[2] = test system: antibodies of patient samples binding to coated peptide; experiment: Inhibition test: increasing concentrations of peptide added to sample diluent in peptide EIA; parameters: species or system human; conditions: inhibitor 100 μg/ml
Procedure: The specificity of cyclic (p244cyc) and the corresponding linear peptide (p244) were tested in inhibition tests by adding increasing concentrations of peptides to sample diluent. P244cyc peptide inhibited with the highest inhibitor concentration (100 μg/ml), the average being 61% of the binding of 8 patient samples (FIG. 2A); 3 samples were inhibited by less than 50%. P244 inhibited with the highest inhibitor concentration (100 μg/ml), the average being 70% of the binding of 24 patient samples (FIG. 2B). 3 samples were inhibited less than 50%. P244 seemed to be more specific than p244cyc peptide. Finally, it was confirmed that the epitope of p244 is similar to p63 by coating plate with p244 and inhibiting the binding of patient samples with p63. P63 inhibited with the highest inhibitor concentration (100 μg/ml), the average being 53% of the binding of 22 patient samples (FIG. 3). 9 samples were inhibited less than 50%.

[3] = test system: antibodies of patient samples against the peptides; experiment: Specificity test: peptide EIA with 0.5 M sodium chloride added to sample diluent; type: binding, human; conditions: mean of 20 patient samples
Procedure: The specificity of different antigens was tested by titration of peptides. […] In addition, the specificity of antibodies against cyclic and linear peptides, p244cyc and p244, was tested by adding 0.5 M sodium chloride to sample diluent. The titer of patient samples against p244, p244cyc and p63-MDA was 19%, 38% and 47% lower (mean of 20 patient samples), respectively, when salt was added to sample diluent. It appears that antibodies against p244 have the best specificity.

[4] = test system: autoantibodies against oxLDL in serum samples; experiment: OxLDL EIA with copper-oxidized human LDL as antigen; type: binding; conditions: for Reactivity of autoantibodies, absorbance (OxLDL EIA): absorbance at 450 nm
Procedure: Various native and modified peptides, derived from the amino acid sequence of apoB-100 (Chen et al., supra), were tested as antigens suitable for use in EIA. The peptides were modified with MDA to produce similar oxidation specific epitopes as in oxLDL. The results of peptide EIA are compared to the results of oxLDL EIA which was optimized using copper-oxidized LDL as antigen; see Närvänen et al., Free Radical Biology & Medicine, in press.

Compound	reaction of autoantibodies (mean ±SD) ([1]; control samples, n=23)	reaction of autoantibodies (mean ±SD) ([1]; patient samples, n=16)	amount of autoantibodies, mean absorbance after subtracting the blank [1]	titer of patient samples lower when salt was added to sample diluent [3] [%]	other results
O=CCC=O [MDA, Malondialdehyde, reference compound]	0.300±0.019	0.338±0.000	–	–	–
LSVKAQYKKNKHRHSITNPL [p63, 2, 20 amino acids, 4 lysines]	0.282±0.100	0.222±0.041	0.389—	–	average inhibition of the binding of patient samples ([2]; 22 patient samples, plate coated with p244, inhibited with p63): 53%; Reactivity of autoantibodies, absorbance (PEPTIDE EIA) ([1]; healthy controls (n = 17)): 0.216 ± 0.142; Reactivity of autoantibodies, absorbance (PEPTIDE EIA) ([1]; patients (n = 19)): 0.159 ± 0.079
MDAp63: p63 modified with MDA (LSVKAQYKKNKHRHSITNPL; also: malondialdehyde (MDA) coupled via primary amines of lysines)	0.533±0.077	0.431±0.040	0.601—	47	Reactivity of autoantibodies, absorbance (PEPTIDE EIA) ([1]; healthy controls (n = 17)): 0.497 ± 0.184; MDAp63:natp63 ratio ([1]; healthy controls (n = 17)): 2.592 ± 0.751; Reactivity of autoantibodies, absorbance (PEPTIDE EIA) ([1]; patients (n = 19)): 0.418 ± 0.141; MDAp63:natp63 ratio ([1]; patients (n = 19)): 2.866 ± 0.924
P63-PEA-MDA: p63 modified with MDA and phosphatidylethanolamine (LSVKAQYKKNKHRHSITNPL; also: modified with MDA and phosphatidylethanolamine) [Peptide P63-PEA-MDA]	–	–	0.406—	–	–
P244cyc-MDA: cyclic p63 modified with MDA (CGLSVKAQYKKNKHRHSITNPLGC; also: cyclic (mode not given here), modified with MDA) [Peptide P244cyc-MDA]	–	–	0.521—	–	–
natLDL: native human low density lipoprotein, used as antigen	–	–	–	–	Reactivity of autoantibodies, absorbance (OxLDL EIA) ([4]; healthy controls (n = 17)): 0.351 ± 0.172; Reactivity of autoantibodies, absorbance (OxLDL EIA) ([4]; patients (n = 19)): 0.258 ± 0.170
oxLDL: copper-oxidized low density lipoprotein purified from human plasma, used as antigen	–	–	–	–	oxLDL:natLDL ratio ([4]; healthy controls (n = 17)): 1.886 ± 0.689; Reactivity of autoantibodies, absorbance (OxLDL EIA) ([4]; healthy controls (n = 17)): 0.591 ± 0.221; oxLDL:natLDL ratio ([4]; patients (n = 19)): 2.535 ± 1.430; Reactivity of autoantibodies, absorbance (OxLDL EIA) ([4]; patients (n = 19)): 0.600 ± 0.287
p244: a linear form of p63, which contains two extra amino acids (glycine and cysteine) at both ends of the peptide (CGLSVKAQYKKNKHRHSITNPLGC)	–	–	0.995—	19	average inhibition of the binding of patient samples ([2]; 24 patient samples, p244): 70%
p244cyc: cyclic p244 (CGLSVKAQYKKNKHRHSITNPLGC; also: cyclic (way of cyclisation not given here))	–	–	0.734—	38	average inhibition of the binding of patient samples ([2]; 8 patient samples, p244cyc): 61%
